Laboratory results reported in patent US9066861B2 (priority 2009, dated 2015).

Tests used:
[1] = Stability analysis of raw API by titration method (BP); assay type: physicochemical; settings: after 3 Months
Text: (§1) In both studies the * Initial denotes the results of the samples tested at the time of receipt of the API from the supplier.

[2] = Stability analysis of raw API by stability indicating HPLC method; assay type: physicochemical; settings: for Assay (%) HPLC / Percentage Drop (%) HPLC / loss in 3 Months: raw API; for Assay (%) HPLC / Percentage Drop (%) HPLC: after 3 Months
Text: as §1

CC(=O)O[C@H]1C[C@@]2(C)[C@@H](C[C@@H](O)[C@H]3[C@@]4(C)CC[C@@H](O)[C@@H](C)[C@@H]4CC[C@@]32C)/C1=C(\CCC=C(C)C)C(=O)O [Sodium Fusidate]
Assay (%) Titration ([1]; 45° C. (C) closed Petri dish): 97.16%
Percentage Drop (%) Titration ([1]; 45° C. (C) closed Petri dish): 1.54%
Assay (%) Titration ([1]; 45° C. (O) open Petri dish): 97.07%
Percentage Drop (%) Titration ([1]; 45° C. (O) open Petri dish): 1.63%
Assay (%) Titration ([1]; RT (C) closed Petri dish): 98.85%
Percentage Drop (%) Titration ([1]; RT (C) closed Petri dish): −0.15%
Assay (%) Titration ([1]; RT (O) open Petri dish): 97.71%
Percentage Drop (%) Titration ([1]; RT (O) open Petri dish): 0.99%
Initial (%) ([2]; raw API tested at the time of receipt from the supplier, method not stated): 98.7%
Assay (%) HPLC ([2]; 45° C. (C) closed Petri dish): 92.96%
Percentage Drop (%) HPLC ([2]; 45° C. (C) closed Petri dish): 5.74%
Assay (%) HPLC ([2]; 45° C. (O) open Petri dish): 92.65%
Percentage Drop (%) HPLC ([2]; 45° C. (O) open Petri dish): 6.05%
loss in 3 Months ([2]; 45° C. (open condition)): about 6%
Assay (%) HPLC ([2]; RT (C) closed Petri dish): 97.67%
Percentage Drop (%) HPLC ([2]; RT (C) closed Petri dish): 1.03%
Assay (%) HPLC ([2]; RT (O) open Petri dish): 96.25%
Percentage Drop (%) HPLC ([2]; RT (O) open Petri dish): 2.45%
loss in 3 Months ([2]; room temperature (open condition)): about 2.5%
stability as an API, Sodium Fusidate compared with Fusidic acid ([2]; raw APIs, Tables 1 and 2): significantly more stable than Fusidic acid
